pIC50: −log10 of the molar value.
Legend:
Assay type in all cases: functional, cell-based
THP-1 = test: Inhibition of LPS-induced Tumor necrosis factor-alpha production (TNF-alpha) in THP-1 cells; conditions: Homo sapiens
[1] = Compound was tested for the inhibition of production of IL-6 in human monocytes
[2] = Compound was tested for the inhibition of production of IL-1 beta in human monocytes

Row | Structure (SMILES) | pIC50 (THP-1) | pIC50 [1] | pIC50 [2]
1 | C[C@@H](c1ccccc1)N1C(=O)c2c(F)c(F)c(F)c(F)c2C1=O | 6.44 | – | –
2 | C[C@]1(N2C(=O)c3c(F)c(F)c(F)c(F)c3C2=O)CCC(=O)NC1=O | 6.35 | – | –
3 | C[C@@]1(N2C(=O)c3c(F)c(F)c(F)c(F)c3C2=O)CCC(=O)NC1=O | 6.31 | – | –
4 | COC(=O)C[C@H](c1ccc(OC)c(OC)c1)N1C(=O)c2c(F)c(F)c(F)c(F)c2C1=O | 6.60 | – | –
5 | CN1C(=O)c2c(F)c(F)c(F)c(F)c2C1=O | 6.38 | – | –
6 | O=C1CCC(N2C(=O)c3c(F)c(F)c(F)c(F)c3C2=O)C(=O)N1 (stereo unspecified) | 6.31 | 6.15 | 6.40
7 | COC(=O)C[C@@H](c1ccc(OC)c(OC)c1)N1C(=O)c2c(F)c(F)c(F)c(F)c2C1=O | 6.50 | – | –
8 | C[C@H](c1ccccc1)N1C(=O)c2c(F)c(F)c(F)c(F)c2C1=O | 6.36 | – | –
9 | O=C1c2c(F)c(F)c(F)c(F)c2C(=O)N1c1ccccc1 | 6.37 | – | –
10 | CC(c1ccccc1)N1C(=O)c2c(F)c(F)c(F)c(F)c2C1=O (racemic) | 6.38 | – | –
11 | CC1(N2C(=O)c3c(F)c(F)c(F)c(F)c3C2=O)CCC(=O)NC1=O (racemic) | 6.42 | – | –
12 | COC(=O)CC(c1ccc(OC)c(OC)c1)N1C(=O)c2c(F)c(F)c(F)c(F)c2C1=O (racemic) | 6.60 | 6.52 | 6.40

Reference: ChEMBL document CHEMBL1130806, “Enhanced potency of perfluorinated thalidomide derivatives for inhibition of LPS-induced tumor necrosis factor-alpha production is associated with a change of mechanism of action” (Bioorg Med Chem Lett, 1998)
